Molecules are shown by their SMILES.

Type in all cases: in vivo
One data set relates to […], PRESL. The data set is described as follows: Preemergence weed control under flooded paddy conditions, MOOVA (Monochoria). Particulars: preemergence, 3-4 weeks after treatment. The method, boiled down:
(§1)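 Flooded paddy preemergence test: seeds/propagating organs in top 0.5 cm silt loam, water held 1.5-3 cm above soil. Dosing by pipette into flood water, aqueous/acetone 50/50 v/v, ~0.5, 0.25, 0.125, 0.063 kg/ha a.i. Greenhouse; read at 3-4 wk, 0-9 visual scale.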

Data set [1] concerns CHENOPODIUM ALBUM, L. The data set is described as follows: Postemergence herbicidal evaluation, CHEAL (Lambsquarters, Common). The method, boiled down:
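Seedlings of common lambsquarters (Chenopodium album) were raised in jiffy flats for roughly two weeks, then sprayed postemergence through a nozzle at 40 psi with test compound dispersed in 50/50 acetone/water containing 0.5% TWEEN®20 surfactant. Plants were kept on greenhouse benches under standard care and rated visually on a 0-9 scale versus controls.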

Data set [2] relates to CHENOPODIUM ALBUM, L. The data set is described as follows: Preemergence herbicidal evaluation, CHEAL (Lambsquarters, Common). Particulars: rated four to five weeks after treatment. The procedure, abridged: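 Rated 0-9 by visual comparison with control (stand, vigor, malformation, size, chlorosis, overall appearance) four to five weeks after preemergence soil spray. Dose equivalent to about 0.125 to 0.50 kg per hectare, applied in aqueous acetone to freshly seeded cups kept in greenhouse.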

The test system of data set [3] is ORYZA SATIVA, L. TEBONNET
Nature of the data set: Rice tolerance to post-transplant applications under flooded paddy conditions, ORYSAT (Rice, Tebonnet). Particulars: post-transplant rice, 3-4 weeks after treatment. The procedure, abridged:
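Post-transplant paddy test: compound applied 3 d after transplanting to flooded soil (1.5-3 cm water), ~0.063-0.5 kg/ha a.i., 50/50 aq/acetone. Silt loam, 2 × 10-d seedlings/pot. Greenhouse 3-4 wk, visual 0-9 score vs control.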

For data set [4], the system named is CYPERUS SEROTINUS, ROTTB. Nature of the data set: Preemergence weed control under flooded paddy conditions, CYPSE (Flatsedge). As to conditions: preemergence, 3-4 weeks after treatment. The procedure, abridged: as §1
Data set [5] has as its system ORYZA SATIVA, L. TEBONNET
Nature of the data set: Preemergence herbicidal evaluation, ORYSAT (Rice, Tebonnet). Particulars: rated four to five weeks after treatment. An excerpt:
(§2) Results of herbicide evaluation are expressed on a rating scale (0-9). The scale is based upon a visual observation of plant stand, vigor, malformation, size, chlorosis and overall plant appearance as compared with a control.
(§3) The preemergence herbicidal activity of the test compounds of the present invention is exemplified by the following tests in which the seeds of a variety of monocotyledonous and dicotyledonous plants are separately mixed with potting soil and planted on top of approximately one inch of soil in separate pint cups. […] The treated cups are then placed on greenhouse benches, watered and cared for in accordance with conventional greenhouse procedures. From four to five weeks after treatment, the tests are terminated and each cup is examined and rated according to the rating system provided in Example 40.
(§4) The compounds evaluated are reported by compound number given in Example 40.

Another data set has as its system SAGITTARIA PYGMAEA, L. Nature of the data set: Preemergence weed control under flooded paddy conditions, SAGPY (Arrowhead (Pygmaea)). Particulars: preemergence, 3-4 weeks after treatment. The method, boiled down: as §1
Data set [6] relates to AMBROSIA ARTEMISIIFOLIA, L. Nature of the data set: Preemergence herbicidal evaluation, AMBEL (Ragweed, Common). As to conditions: rated four to five weeks after treatment.
From the text: as §2, §3, §4

For data set [7], the system named is TRITICUM AESTIVUM, CV. APOLLO. The data set is described as follows: Preemergence herbicidal evaluation, TRZAWO (Wheat, Winter, CV. APOLLO). As to conditions: rated four to five weeks after treatment.
From the text: as §2, §3, §4

The subject of data set [8] is ECHINOCHLOA CRUS-GALLI, (L) BEAU. The data set is described as follows: Preemergence herbicidal evaluation, ECHCG (Barnyardgrass). As to conditions: rated four to five weeks after treatment. The method, boiled down:
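Barnyardgrass seeds were mixed with potting soil and planted on about one inch of soil in pint cups for preemergence testing. Treated cups were kept on greenhouse benches, watered and maintained by standard greenhouse practice. After four to five weeks, each cup was visually rated on a 0-9 scale against an untreated control.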

In data set [9] the test system is ABUTILON THEOPHRASTI, MEDIC. The data set is described as follows: Preemergence herbicidal evaluation, ABUTH (Velvetleaf). Particulars: rated four to five weeks after treatment.
From the text: as §2, §3, §4

As for `COC(=O)Cn1c(=O)n(C)c(=O)n(-c2cc(Oc3cc(Cl)c(Cl)cc3Cl)ccc2[N+](=O)[O-])c1=O` [Compound 31, Methyl tetrahydro-3-methyl-5-[2-nitro-5-(2,4,5-trichlorophenoxy)phenyl]-2,4,6-trioxo-s-triazine-1(2H)-acetate], the “Herbicidal effect rating, MOOVA” value in data set […], PRESL. (0.063 kg/ha) stood at 0.0; in data set […], PRESL. (0.125 kg/ha) it was 0.0. For the same molecule, the CHEAL rating is 7.0 in the data set with CHENOPODIUM ALBUM, L. [1] (Rate 0.125 kg/ha); 7.0 in the data set with CHENOPODIUM ALBUM, L. [1] (Rate 0.250 kg/ha); 7.0 in the data set with CHENOPODIUM ALBUM, L. [1] (Rate 0.500 kg/ha). The CHEAL herbicidal rating came out at 9.0 with CHENOPODIUM ALBUM, L. [2] (Rate 0.125 kg/ha); 9.0 in the data set on CHENOPODIUM ALBUM, L. [2] (Rate 0.250 kg/ha); 9.0 with CHENOPODIUM ALBUM, L. [2] (Rate 0.500 kg/ha). The “Herbicidal effect rating, ORYSAT” value in data set [3] (0.063 kg/ha) is given as 0.0; in [3] (0.125 kg/ha), 0.0; in data set [3] (0.250 kg/ha), 1.0; in data set [3] (0.500 kg/ha), 2.0. In addition, the “Herbicidal effect rating, CYPSE” value in [4] (0.063 kg/ha), in data set [4] (0.125 kg/ha), in [4] (0.250 kg/ha) and in data set [4] (0.500 kg/ha) was 0.0 each time. In addition, the ORYSAT herbicidal rating in [5] (Rate 0.125 kg/ha), in data set [5] (Rate 0.250 kg/ha) and in data set [5] (Rate 0.500 kg/ha) was 3.0 throughout. Moreover, the “Herbicidal effect rating, SAGPY” value with SAGITTARIA PYGMAEA, L. (0.063 kg/ha) is given as 0.0; with SAGITTARIA PYGMAEA, L. (0.125 kg/ha), 0.0; in the data set with SAGITTARIA PYGMAEA, L. (0.250 kg/ha) it was 0.0; with SAGITTARIA PYGMAEA, L. (0.500 kg/ha), 0.0.

Consider `Cn1c(=O)n(CC(=O)OC(C)(C)C)c(=O)n(-c2cc(Oc3c(F)cc(C(F)(F)F)cc3Cl)ccc2F)c1=O` [Compound 41, Tert-butyl 3-{[5-(2-chloro-α,α,α,6-tetra-fluoro-p-tolyl)oxy]-2-fluorophenyl}tetra-hydro-5-methyl-2,4,6-trioxo-s-triazine-1(2H)-acetate], for which the CHEAL herbicidal rating turned out to be 9.0 in the data set with CHENOPODIUM ALBUM, L. [2] (Rate 0.125 kg/ha); 9.0 in the data set on CHENOPODIUM ALBUM, L. [2] (Rate 0.250 kg/ha); 9.0 in the data set with CHENOPODIUM ALBUM, L. [2] (Rate 0.500 kg/ha). In addition, the “Herbicidal effect rating, ORYSAT” value in data set [3] (0.063 kg/ha), in data set [3] (0.125 kg/ha), in data set [3] (0.250 kg/ha) and in data set [3] (0.500 kg/ha) was 0.0 each time. For the same molecule, the AMBEL herbicidal rating in [6] (Rate 0.125 kg/ha), in [6] (Rate 0.250 kg/ha) and in [6] (Rate 0.500 kg/ha) was 0.0 each time. The TRZAWO herbicidal rating in [7] (Rate 0.125 kg/ha), in [7] (Rate 0.250 kg/ha) and in data set [7] (Rate 0.500 kg/ha) was 0.0 in each case. In addition, the “Herbicidal effect rating, SAGPY” value with SAGITTARIA PYGMAEA, L. (0.063 kg/ha) was found to be 0.0; in the data set with SAGITTARIA PYGMAEA, L. (0.125 kg/ha), 0.0; in the data set on SAGITTARIA PYGMAEA, L. (0.250 kg/ha), 0.0; with SAGITTARIA PYGMAEA, L. (0.500 kg/ha) it was 0.0. In addition, the ECHCG herbicidal rating in data set [8] (Rate 0.125 kg/ha), in data set [8] (Rate 0.250 kg/ha) and in data set [8] (Rate 0.500 kg/ha) was 0.0 throughout. Besides, the ABUTH herbicidal rating in data set [9] (Rate 0.125 kg/ha), in [9] (Rate 0.250 kg/ha) and in data set [9] (Rate 0.500 kg/ha) was 0.0 in each case.

The values above are taken from patent EP0745595A1, “3-(3-Aryloxyphenyl)-1-(substituted methyl)-s-triazine-2,4,6-oxo or thiotrione herbicidal agents” (American Cyanamid Company, priority 1995, dated 1996).
